According to publication PMC11943016, “TBG096 Ameliorates Memory Deficiency in AD Mouse Model via Promoting Neurogenesis and Regulation of Hsc70/HK2/PKM2/LAMP2A Signaling Pathway” (International Journal of Molecular Sciences, 2025):

Columns and labels:
[1] = tested on: HFD-induced AD mice; experiment: Immunofluorescence staining of brain tissue of HFD-induced AD mice; assay type: in vivo
From the text: (§1) In experiments with the HFD-induced AD mouse model, a total of 60 Institute of Cancer Research (ICR) male mice aged 4 weeks from Zhejiang Academy of Medical Sciences (Hangzhou, China) were used for animal experiments (permit number: ZJU20230121). The animals were provided free access to a chow diet and water. […] The HFD and normal diet were alternated every two days to maintain freshness. Weekly measurements were taken for water intake, food intake, and body weight. In the eighteenth week, the mice underwent Y-maze and NOR tests. The Morris water maze test was conducted during the nineteenth week. After confirming the successful establishment of the AD model characterized by cognitive impairment, oral administration of treatments commenced. […] Each group had 10 mice.
At the end of animal experiments, three mice in each group were taken for heart perfusion with cold PBS and 4% paraformaldehyde. After that, the brains of mice were fixed with 4% paraformaldehyde for 24 h and gradually dehydrated with 15% and 30% sucrose solutions for 48 h, respectively. The fixed and embedded brain sample was placed in a cryostat and cut into 20 µm thick slices with a cryostat (Thermo Fisher, Waltham, MA, USA), and brain slices in the hippocampus and cortex were collected. Finally, the brain slices were placed in antifreeze (glycerol/ethylene/PBS = 3:3:4) and kept in a refrigerator at −30 °C until immunostaining. The brain slices were fixed on a glass slide and hydrated with PBS for 5 min. Then, blocking buffer was added to the brain slices and incubated at room temperature for 1 h. Brain slices were washed twice with PBS and incubated with anti-NeuN, anti-BrdU, anti-Iba1, anti-GFAP, anti-INOS, anti-APP, or anti-p-Tau at 4 °C for 24 h, respectively. Subsequently, the brain slices were incubated with secondary antibody (goat anti-rabbit IgG H&L (Alexa Fluor® 488) or rabbit anti-mouse IgG (Cy3 conjugate)) at room temperature for 2 h after washing with PBS three times. Finally, a cover glass was used to lightly cover the slices stained with DAPI. […] Biomarker proteins in the cerebral cortex and hippocampus were digitized by Image J software (National Institutes of Health, Bethesda, MD, USA).

[2] = tested on: gut microbiota; experiment: Gut microbiota analysis in HFD-induced AD mice; assay type: in vivo; conditions: Met 140 mg/kg
From the text: as §1

[3] = tested on: PC12 cells; experiment: NGF-mimic activity: neurite outgrowth in PC12 cells; assay type: cell-based; conditions: 48 h
Description: The neurogenic activity of samples was evaluated according to the methods described in our previous study. Briefly, approximately 5 × 10^4 cells were seeded in each well of a 24-well microplate and were cultured under a humidified atmosphere with 5% CO2 at 37 °C for 24 h. Then, the medium in each well was replaced with 1 mL of serum-free DMEM containing 40 ng/mL NGF as a positive control, 0.5% DMSO as a negative control, and the test sample after 24 h, respectively. About 100–200 cells of each well were counted from a randomly selected area and repeated thrice after 48 h. A cell-bearing neurite outgrowth longer than the diameter of the cell body was identified as a positive cell. The activity was presented as the percentage of positive cells in the selected area.
In the inhibitor experiment of NGF-mimic activity, approximately 5 × 10^4 PC12 cells were seeded into each well of a 24-well plate and incubated for 24 h. After that, the medium in each well was replaced with 500 μL of serum-free DMEM or the serum-free DMEM containing VER155008, the inhibitor of Hsc70 protein, incubated in a CO2 incubator for 30 min. Subsequently, 500 μL of serum-free DMEM containing different samples was added and cultured, respectively. The PC12 cells with neurite outgrowth were recorded after 48 h. For the Western blot analysis, the experiment included five groups, namely the control (C) group, the NGF (40 ng/mL) group, the TBG096 (1 µM) group, the VER155008 (3 µM) group, and the VER155008 (3 µM) + TBG096 (1 µM) group. Afterwards, approximately 2 × 10^6 cells per dish were seeded into ten 6 cm Petri dishes with 5 mL of DMEM medium and incubated for 24 h. After giving different treatments with samples, the cells continued to culture for 4 h. Protein extraction was conducted to prepare for the subsequent Western blot analysis.

SMILES: O=C(SCCCCCCSCCCC(F)(F)F)c1cccc(O)c1O [TBG096]
- APP and phosphorylation Tau protein in the hippocampus ([1]; immunofluorescence): reduction
- Iba1, GFAP, INOS markers (activated microglia, astrocytes, M1 macrophages) in the hippocampus ([1]; vs HFD-only): significantly reduced
- number of mature neurons (NeuN) in the cerebral cortex ([1]; vs HFD-only group): increased numbers of mature neurons
- abundance of Firmicutes (decreased by HFD) and Bacteroidota (increased by HFD) ([2]; TBG096 20 mg/kg): reversed
- abundance of Ligilactobacillus ([2]; TBG096 5 and 20 mg/kg): improved
- percentage of PC12 cells exhibiting neurite growth ([3]; 0.3, 1, and 3 µM, listed as 3): superior activity
- NGF-mimic effect after treatment with VER155008 (Hsc70 inhibitor) ([3]; PC12 cells): significantly diminished
